What was measured:
Assay type in all cases: cell-based, human
[1] = system: sporadic PD patient fibroblasts; test: Mitochondrial membrane potential (MMP, TMRM) in sporadic PD patient fibroblasts; conditions: Homo sapiens, Fibroblast, 24 h, 3 sporadic PD patient fibroblasts
Description: (§1) Primary fibroblast cells were cultured continuously in Glucose based medium (high glucose (4500 mg/L) Dulbecco's Modified Eagle's medium (DMEM; Sigma-Aldrich) supplemented with 10% fetal bovine serum (Sigma-Aldrich), 100 IU/mL penicillin, 100 μg/mL streptomycin (Lonza), 1 mM sodium pyruvate (Sigma-Aldrich) and 50 μg/mL uridine (Sigma-Aldrich)). Unless otherwise stated, 24 hours prior to analysis, the Glucose based medium was exchanged for Galactose based medium (glucose-free DMEM (Gibco) with the same supplementation and in addition, 5 mM galactose (Sigma-Aldrich)). All cells were assessed between passage 6-10.
Fibroblasts were cultured and plated into a greiner black 384 μClear® plate at a concentration of 1000 cells per well in 50 μl of media volume. The plates are left overnight in an incubator to allow the fibroblasts to adhere to the plate surface. The following morning the Glucose based medium is replaced with 25 μl of Galactose based medium. The plates were then dosed with the compounds using an ECHO® 550 liquid handling system. The wells were dosed to provide an 8-point concentration range of 0.06 nM-300 nM of compound. After dosing the wells are topped up with a further 25 μl of Galactose based medium and then left in an incubator for 24 hours. After 24 hours, the medium is removed from the wells and replaced with 25 μl phenol free Minimal essential medium supplemented with 10% FBS, 1% Penicillin-streptomycin, 1% sodium pyruvate, 0.1% uridine, 1% non-essential amino acids and 1% MEM vitamins with 80 nM TMRM (Sigma) and 10 μM Hoechst Stain (Sigma). The plate is returned to the incubator for another hour after which the stain medium is removed and replaced with 25 μl Phenol free MEM. The plate is then imaged using an IN Cell high content microscope (GE Healthcare) with fields of view per well in 2 channels, Cy3 excitation 542 nm, emission 604-64 nm; and the DAPI excitation 350 nm, emission 450-55 nm at 37° C. with CO2. After imaging the plate is disposed of and the images are Data mined using the INCell developer Toolkit (GE Healthcare).
After the assays had been repeated in triplicate per line and compound the data was then inputted into Graph pad Prism 7 software suite where a dose response curve is generated using the default “[Agonist] vs response(three parameters)” equation. […]

[2] = system: sporadic PD patient fibroblasts; test: Cellular ATP levels in sporadic PD patient fibroblasts, full ATP assay; conditions: Homo sapiens, Fibroblast, 24 h, 3 sporadic PD patient fibroblasts
Description: as §1
The ATP protocol is generally as described in Mortiboys et al 2008. Briefly, fibroblasts were cultured as and plated into white 384 well plates at a concentration of 5000 cells per well in 50 μl of media volume. The plates are left overnight in an incubator to allow the fibroblasts to adhere to the plate surface. The following morning the Glucose based medium is replaced with 25 μl of Galactose based medium. The plates were then spiked with the compounds using a ECHO 550 liquid handling system. The wells were dosed to provide an 8-point concentration range of 0.06 nM-300 nM of compound. After dosing the wells are topped up with a further 25 μl of Galactose based medium and then left in an incubator for 24 hours. Following this incubation, the medium is removed from the plate and the wells are washed twice with sterile PBS. The wells are filled with 25 μl of Sterile PBS followed by 12.5 μl of Lysis solution from the ATPlite™ Luminescence ATP detection assay system (Perkin Elmer), including 16 cell free wells to use as blank controls. The plate is then placed on a rotary shaker for 5 mins at 700 rpm. Following the shaking 12.5 μl of ATP substrate solution (Perkin Elmer) is added to each well and a further 5 min of shaking. The plate is then placed in darkness for 10 minutes prior to reading. Using a PHERAStar® plate reader, luminescence intensity is recorded. Following the ATP assay the plates are immediately assayed for DNA content in a CyQUANT® assay.
(§2) Immediately following The ATP assay DNA content is assessed with the CyQUANT® NF Cell Proliferation Assay Kit (ThermoFisher). CyQUANT® buffer is prepared immediately before the assay and is comprised of 1 μl CyQUANT® dye per ml×1 HBSS solution. 12.5 μl of CyQUANT® buffer is added to each well. Plate left in incubator for 1 hour then read on a PHERAStar© Plate reader with excitation at 497 nm and emission at 520 nm.
ATP Quantification for each well is determined using the following formula: […]
After the assays had been repeated in triplicate per line and compound the data was then inputted into Graph pad Prism 7 software suite where a dose response curve is generated using the default “[Agonist] vs response(three parameters)” equation.
From this EC50 values, lowest response and maximal response were taken and used to calculate the Geometric mean between the 5 different lines assessed.

[3] = system: sporadic PD patient fibroblasts; test: Cellular ATP levels in sporadic PD patient fibroblasts, Preliminary ATP assay; conditions: for activity at 0.1 µM / activity at 1 µM: Homo sapiens, Fibroblast; for activity at 0.1 µM: read-out: Average ATP Response 100 nM; for activity at 1 µM: read-out: Average ATP Response 1 μM
Description: In some cases, a preliminary ATP protocol was used in which EC50 was not determined. The preliminary ATP protocol is generally as described in Mortiboys et al 2008. Briefly, fibroblasts were cultured and plated into white, clear-bottom 384 well plates at a concentration of 4000 cells per well in 50 μl of media volume. The plates are left overnight in an incubator to allow the fibroblasts to adhere to the plate surface. The following morning the Glucose based medium is replaced with 25 μl of Galactose based medium. The cells were then dosed with 100 nM and 1 μM concentrations of the compounds using a ECHO 550 liquid handling system. After dosing the wells are topped up with a further 25 μl of Galactose based medium and then left in an incubator for 24 hours. Following this incubation, the medium is removed from the plate and the wells are washed twice with sterile PBS. The wells are filled with 20 μl of Sterile PBS followed by 10 μl of Lysis solution from the ATPlite™ Luminescence ATP detection assay system (Perkin Elmer), including 14 cell free wells to use as blank controls. The plate is then placed on a rotary shaker for 10 mins at 700 rpm. Following the shaking 10 μl of ATP substrate solution (Perkin Elmer) is added to each well and a further 5 min of shaking. The plate is then incubated in the dark for 10 minutes prior to reading. Using a FLUOstar® Omega plate reader, luminescence intensity is recorded. Following the ATP assay the plates are immediately assayed for DNA content in a CyQUANT® assay.
as §2, with “of 2” for “of 1”, “solution. 10” for “solution. 12.5”, “well. Cell plates were then incubated” for “well. Plate left in incubator”, “hour before being” for “hour then”, “a FLUOStar®” for “a PHERAStar©”
The ATP Quantification for each well is determined as set out above.

[4] = 100 nM, 24 h, % of vehicle treated sPD fibroblasts, 3 sporadic PD patients
[5] = 1 μM, 24 h, % of vehicle treated sPD fibroblasts, 3 sporadic PD patients

C[C@H](CCCC(=O)O)[C@H]1CC[C@H]2[C@@H]3[C@@H](O)C[C@@H]4CN(C)CC[C@]4(C)[C@H]3CC[C@]12C [Compound 31b, N-Methyl-3-aza-7β-hydroxy-25-homo-5β-cholan-25-oic acid hydrotrifluoroacetate]
EC50 ([1]; 8-point range 0.06 nM-300 nM): 6.1 nM | Emax ([1]; max response with highest dose of compound (300 nM), read-out: MMP % of vehicle, top %): 95.1% | activity at 60 pM ([1]; max response with lowest dose of compound (0.06 nM), read-out: MMP % of vehicle, bottom %): 86.5% | EC50 ([2]; 8-point range 0.06 nM-300 nM): 0.266 nM | Emax at 0.3 µM ([2]; max response with highest dose of compound (300 nM), read-out: ATP % of vehicle, top %): 161% | activity at 60 pM ([2]; max response with lowest dose of compound (0.06 nM), read-out: ATP % of vehicle, bottom %): 91.7%

C[C@H](CCCC(=O)NC1CCOC1)[C@H]1CC[C@H]2[C@@H]3[C@@H](O)C[C@@H]4CNCC[C@]4(C)[C@H]3CC[C@]12C (stereo partly drawn) [Compound 82b, N-{(3-aza-7β-hydroxy-25-homo-5β-cholan-25-oyl)}-3-aminotetrahydrofuran]
activity at 0.1 µM [3, 4]: 96.2% | activity at 1 µM [3, 5]: 97.5%

S-(3-Aza-7β-hydroxy-5β-cholan-24-oyl)-phenylmethanethiol [Compound 64a]
ATP production relative to control levels ([3]; 100 nM): returning ATP production to control levels | Average ATP Response 100 nM [3, 4]: 118.2% | Average ATP Response 1 μM [3, 5]: 111.4%

C[C@H](CCCC(=O)N[C@@H](Cc1ccc(O)cc1)C(=O)O)[C@H]1CC[C@H]2[C@@H]3[C@@H](O)C[C@@H]4CNCC[C@]4(C)[C@H]3CC[C@]12C [Compound 77b, N-(3-Aza-7β-hydroxy-25-homo-5β-cholan-25-oyl)-(2S)-2-amino-3-(4-hydroxyphenyl)propanoic acid]
activity at 0.1 µM [3, 4]: 109% | activity at 1 µM [3, 5]: 113%

C[C@H](CCC(=O)Nc1ccc(F)cc1)[C@H]1CC[C@H]2[C@@H]3[C@@H](O)C[C@@H]4CN(C)CC[C@]4(C)[C@H]3CC[C@]12C [Compound 55a, N-(3-Methyl-aza-7β-hydroxy-5β-cholan-24-oyl)-1-amino-4-fluorobenzene]
activity at 0.1 µM [3, 4]: 110% | activity at 1 µM [3, 5]: 109%

C[C@H](CCCC(=O)N[C@@H](COC(C)(C)C)C(=O)O)[C@H]1CC[C@H]2[C@@H]3[C@@H](O)C[C@@H]4CNCC[C@]4(C)[C@H]3CC[C@]12C [Compound 71b, N-(3-Aza-7β-hydroxy-25-homo-5β-cholan-25-oyl)-(2S)-2-amino-3-[(2-methylpropan-2-yl)oxy]propanoic acid]
activity at 0.1 µM [3, 4]: 106% | activity at 1 µM [3, 5]: 104%

CC(C)[C@H](NC(=O)CC[C@@H](C)[C@H]1CC[C@H]2[C@@H]3[C@@H](O)C[C@@H]4CNCC[C@]4(C)[C@H]3CC[C@]12C)C(=O)O [Compound 65a, N-(3-Aza-7β-hydroxy-5β-cholan-24-oyl)-(S)-2-amino-3-methylbutanoic acid]
activity at 0.1 µM [3, 4]: 111% | activity at 1 µM [3, 5]: 108%

C[C@H](CCC(=O)N(C)CC(=O)O)[C@H]1CC[C@H]2[C@@H]3[C@@H](O)C[C@@H]4CNCC[C@]4(C)[C@H]3CC[C@]12C [Compound 67a, N-Methyl-N-(3-aza-7β-hydroxy-5β-cholan-24-oyl)-glycine]
activity at 0.1 µM [3, 4]: 108% | activity at 1 µM [3, 5]: 107%

C[C@H](CCCC(=O)O)[C@H]1CC[C@H]2[C@@H]3[C@@H](O)C[C@@H]4CN(C(=O)OCc5ccccc5)CC[C@]4(C)[C@H]3CC[C@]12C [Compound 50b, N-(benzyloxycarbonyl)-3-aza-7β-hydroxy-24-homo-5β-cholan-25-oic acid]
activity at 0.1 µM [3, 4]: 101% | activity at 1 µM [3, 5]: 99.8%

C[C@H](CCCC(=O)NCCS(=O)(=O)O)[C@H]1CC[C@H]2[C@@H]3[C@@H](O)C[C@@H]4CNCC[C@]4(C)[C@H]3CC[C@]12C [Compound 72b, N-(3-Aza-7β-hydroxy-25-homo-5β-cholan-25-amide)-ethylsulfonic acid]
activity at 0.1 µM [3, 4]: 102% | activity at 1 µM [3, 5]: 112%

C[C@H](CCC(=O)N1CCC(=O)CC1)[C@H]1CC[C@H]2[C@@H]3[C@@H](O)C[C@@H]4CN(C(=O)OCc5ccccc5)CC[C@]4(C)[C@H]3CC[C@]12C [Compound 79a, N-{(benzyloxycarbonyl)-3-aza-7β-hydroxy-5β-cholan-24-oyl}-4-piperidone]
activity at 0.1 µM [3, 4]: 116% | activity at 1 µM [3, 5]: 122%

C[C@H](CCCC(=O)N[C@@H](Cc1ccccc1)C(=O)O)[C@H]1CC[C@H]2[C@@H]3[C@@H](O)C[C@@H]4CNCC[C@]4(C)[C@H]3CC[C@]12C [Compound 73b, N-(3-Aza-7β-hydroxy-25-homo-5β-cholan-25-oyl)-(S)-2-amino-3-phenylpropanoic acid]
activity at 0.1 µM [3, 4]: 99.6% | activity at 1 µM [3, 5]: 100%

C[C@H](CCC(=O)N[C@@H](CO)C(=O)O)[C@H]1CC[C@H]2[C@@H]3[C@@H](O)C[C@@H]4CNCC[C@]4(C)[C@H]3CC[C@]12C [Compound 57a, N-(3-Aza-7β-hydroxy-5β-cholan-24-oyl)-(S)-2-amino-3-hydroxypropanoic acid]
activity at 0.1 µM [3, 4]: 109% | activity at 1 µM [3, 5]: 107%

Reference: patent US20250320246A1, “3-AZASTEROID COMPOUNDS FOR THE TREATMENT OF DISEASES RELATED TO MITROCHONDRIAL FUNCTION” (NZP UK LIMITED, priority 2022, published 2025)
